Viability data for 74 molecules are collected here from publication PMC12040169 (PLOS Biology, 2025).

This data set can be described thus: in vitro. The note with it: human, hela cells, % viability.

The viability is a read-out of living cells in per cent, often relative to untreated cells.

With `O=C(COc1ccc(C2CCCCC2)cc1)Nc1cccc(-c2nc3ncccc3o2)c1` [CBK264569], the viability at 28.5 h, 10 µM is 90.9%.

For the molecule `O=C(C1=C(O)C(=O)N(CCN2CCOCC2)C1c1cccnc1)c1ccco1` (centres unmarked) [CBK264570], the viability at 28.5 h, 10 µM was 97.4%.

Take `O=C(C1=C(O)C(=O)N(CCCn2ccnc2)C1c1cccc([N+](=O)[O-])c1)c1ccc(F)cc1` (centres unmarked) [CBK264571]: the viability at 28.5 h, 10 µM turned out to be 97.8%.

For `N#Cc1nc(-c2ccccc2)oc1NCCN1CCCCC1` [CBK264573], the viability at 28.5 h, 10 µM worked out at 93.5%.

`COc1cc(/C=c2\sc3nc(-c4ccccc4OC(C)=O)nn3c2=O)ccc1OCc1ccccc1` [CBK264575]: the viability at 28.5 h, 10 µM is 99.2%.

On to `N#Cc1c(NC(=O)c2cc(S(=O)(=O)N3CCCCC3)c(Cl)cc2Cl)sc2c1CCCC2` [CBK264579], for which the viability at 28.5 h, 10 µM was 104%.

With `O=[N+]([O-])c1ccc(CSc2nnc(-c3cccnc3)n2Cc2ccco2)cc1` [CBK264580], the viability at 28.5 h, 10 µM stood at 106%.

In the case of `O=C(O)CC(C(=O)Nc1ccc(Cl)cc1)C1CCCO1` (centres unmarked) [CBK264583], the viability at 28.5 h, 10 µM was 94.2%.

Regarding `Cc1sc2nc(SCc3cc(O)[nH]n3)nc(N)c2c1C` [CBK264585], the viability at 28.5 h, 10 µM came to 88.6%.

In the case of `Cc1cccc(NC(=O)CN2C(=O)S/C(=C\c3cc(C)n(-c4ccc(N(C)C)cc4)c3C)C2=O)c1` [CBK264586], the viability at 28.5 h, 10 µM turned out to be 96.9%.

For the molecule `Cc1ccc(S(N)(=O)=O)cc1C(=O)OCC(=O)c1ccccc1` [CBK264588], the viability at 28.5 h, 10 µM stood at 113%.

As to `Cc1ccc(S(=O)(=O)CC(CN2CCOCC2)N2CCOCC2)cc1` (centres unmarked) [CBK264590], the viability at 28.5 h, 10 µM is 99.1%.

For `O=C(O)CC1S/C(=N/N=C/c2ccc(-c3ccc(Cl)cc3)o2)NC1=O` (centres unmarked) [CBK264595], the viability at 28.5 h, 10 µM was 125%.

Regarding `COc1ccc([N+](=O)[O-])cc1COc1ccc2ccc(=O)oc2c1` [CBK264597], the viability at 28.5 h, 10 µM was 106%.

Regarding `CC1(C)C(=O)OC(C(=O)c2ccc(Br)cc2)C(C)(C)C1=O` (centres unmarked) [CBK264600], the viability at 28.5 h, 10 µM amounted to 90.3%.

For the molecule `O=C(O)COc1cccc(NC(=O)c2ccccc2)c1` [CBK264602], the viability at 28.5 h, 10 µM was 88.3%.

Turning to `CCOc1ccc(C(=O)C2=C(O)C(=O)N(CCN(C)C)C2c2ccc(N(C)C)cc2)c(C)c1` (centres unmarked) [CBK264603], the viability at 28.5 h, 10 µM was determined as 110%.

In the case of `CCC12CN3CC(CC)(CN(C1)C3c1ccccc1[N+](=O)[O-])C2=O` (centres unmarked) [CBK264604], the viability at 28.5 h, 10 µM was found to be 116%.

Regarding `COc1cc(C2C(C(=O)c3cccs3)=C(O)C(=O)N2Cc2cccnc2)ccc1O` (centres unmarked) [CBK264605], the viability at 28.5 h, 10 µM is 110%.

On to `CC(CN1CCOCC1)OC(=O)c1ccco1` (centres unmarked) [CBK264606C], for which the viability at 28.5 h, 10 µM worked out at 92.9%.

As to `O=C(Nc1sc2c(c1C(=O)NCC1CCCO1)CCCC2)c1ccccc1[N+](=O)[O-]` (centres unmarked) [CBK264608], the viability at 28.5 h, 10 µM worked out at 102%.

With `O=[N+]([O-])c1cccc(CN2CCC(N3CCN(Cc4ccccc4)CC3)CC2)c1` [CBK264609G], the viability at 28.5 h, 10 µM amounted to 93.5%.

For the molecule `O=C(/C=C/c1cccc([N+](=O)[O-])c1)Nc1ccc(Cl)c(-c2nc3ccccc3o2)c1` [CBK264610], the viability at 28.5 h, 10 µM came to 102%.

For `COc1cc(C(=O)ON=C(N)Cc2cccc3ccccc23)cc(OC)c1OC` [CBK264611], the viability at 28.5 h, 10 µM came to 95.9%.

Turning to `COC(=O)c1ccccc1NC(=O)CN(c1cccc(Cl)c1Cl)S(C)(=O)=O` [CBK264612], the viability at 28.5 h, 10 µM is 115%.

As to `CCOC(=O)CN1C(=O)S/C(=C/c2cc(Cl)c(OCC(=O)O)c(Br)c2)C1=O` [CBK264614], the viability at 28.5 h, 10 µM stood at 106%.

For the molecule `COc1ccc(C(=O)C2=C(O)C(=O)N(CCN3CCNCC3)C2c2ccc(Cl)c(Cl)c2)cc1` (centres unmarked) [CBK264616], the viability at 28.5 h, 10 µM was 95.1%.

For the molecule `O=[S+]([O-])(c1ccccc1)N1CCC(N(CCc2ccccc2)Cc2ccccc2)CC1` [CBK264617G], the viability at 28.5 h, 10 µM worked out at 102%.

`O=C(NC(=S)Nc1cccc(Cl)c1)c1cncc(Br)c1` [CBK264618]: the viability at 28.5 h, 10 µM came out at 94.1%.

For `Cc1ccc(C(=O)C2=C(O)C(=O)N(Cc3cccnc3)C2c2cccc(Oc3ccccc3)c2)o1` (centres unmarked) [CBK264619], the viability at 28.5 h, 10 µM was 96.3%.

`O=C(CCCN1C(=O)/C(=C/c2ccc3c(c2)OCO3)SC1=S)Nc1ccc([N+](=O)[O-])cc1` [CBK264623]: the viability at 28.5 h, 10 µM came out at 105%.

Turning to `COCCCNC(=O)COc1cc(C)ccc1C` [CBK264625], the viability at 28.5 h, 10 µM was found to be 88.4%.

Turning to `Cc1cccc(-n2nc3c4nonc4ccc3[n+]2[O-])c1C` [CBK264626], the viability at 28.5 h, 10 µM was determined as 93.6%.

Consider `COc1ccc(CN2CCC(N3CCc4ccccc4C3)CC2)cc1OCc1ccccc1` [CBK264629G], for which the viability at 28.5 h, 10 µM stood at 91.4%.

On to `Cc1cc(=O)nc(SC(C)C(=O)O)[nH]1` (centres unmarked) [CBK264630], for which the viability at 28.5 h, 10 µM amounted to 95.3%.

Consider `CCN1CCN(C2CCN(Cc3ccccc3[N+](=O)[O-])CC2)CC1` [CBK264631G], for which the viability at 28.5 h, 10 µM was determined as 98.1%.

As for `O=C(CN1C(=O)S/C(=C\c2ccc(OCc3ccccc3F)cc2)C1=O)c1ccc(Cl)cc1` [CBK264632], the viability at 28.5 h, 10 µM amounted to 97.6%.

For `COc1ccc(-n2nc3ccc(NC(=O)c4sc5ccccc5c4Cl)cc3n2)cc1Cl` [CBK264633], the viability at 28.5 h, 10 µM is 94.5%.

For the molecule `O=C(CN1C(=O)S/C(=C\c2ccc(OCc3ccccc3)cc2)C1=O)c1ccccc1` [CBK264636], the viability at 28.5 h, 10 µM came to 95.1%.

Take `O=C1/C(=C/c2ccc(OCc3cccc([N+](=O)[O-])c3)cc2)SC(=S)N1CCc1ccccc1` [CBK264641]: the viability at 28.5 h, 10 µM is 92.6%.

With `CCOc1cc([N+](=O)[O-])cc(C=O)c1OC(C)C(=O)O` (centres unmarked) [CBK264642], the viability at 28.5 h, 10 µM came to 89.6%.

Turning to `CC(=O)Nc1ccc(S(=O)(=O)Nc2ccc(S(=O)(=O)Nc3ccc(C)c(C)c3)cc2)cc1` [CBK264643], the viability at 28.5 h, 10 µM was determined as 101%.

On to `Cc1ccc(CN(CC(=O)N2CCCCC2)S(=O)(=O)c2ccc(C)cc2)cc1` [CBK264646], for which the viability at 28.5 h, 10 µM was found to be 91.6%.

Take `Cc1ccc(C2=N/C(=C/c3ccc(OS(=O)(=O)c4ccc(C)c([N+](=O)[O-])c4)cc3)C(=O)O2)cc1` [CBK264647]: the viability at 28.5 h, 10 µM stood at 99.1%.

Take `Nc1nnc(SCc2nc3ccccc3n2Cc2ccccc2)s1` [CBK264649]: the viability at 28.5 h, 10 µM is 92.1%.

Take `Cc1ccccc1OCC(=O)Nc1ccc(CSc2ccccc2)cc1` [CBK264651]: the viability at 28.5 h, 10 µM came out at 93%.

`CCc1cc(=O)oc2cc(OC(=O)c3ccco3)ccc12` [CBK264657]: the viability at 28.5 h, 10 µM stood at 84.8%.

Regarding `CCc1ccc(OCC(=O)Nc2cccnc2)cc1` [CBK264658], the viability at 28.5 h, 10 µM worked out at 96.6%.

As for `O=C(CN(Cc1ccccc1Cl)S(=O)(=O)c1ccc(Cl)cc1)NC1CCCCC1` [CBK264659], the viability at 28.5 h, 10 µM stood at 97.5%.

With `COc1ccc(C2C(C(=O)c3ccc(Cl)cc3)=C(O)C(=O)N2CCN(C)C)cc1OC` (centres unmarked) [CBK264660], the viability at 28.5 h, 10 µM was found to be 103%.

As to `c1ccc(Oc2cccc(CN3CCC(N4CCN(c5ccccc5)CC4)CC3)c2)cc1` [CBK264662G], the viability at 28.5 h, 10 µM is 88%.

Turning to `O=C(O)c1cc(-c2ccccc2)nc(Nc2nc3ccccc3s2)n1` [CBK264665], the viability at 28.5 h, 10 µM stood at 108%.

On to `COc1ccc(C(=O)C2=C(O)C(=O)N(CCN3CCNCC3)C2c2ccccc2F)cc1` (centres unmarked) [CBK264666], for which the viability at 28.5 h, 10 µM amounted to 99.4%.

Turning to `O=C1/C(=C/c2ccc(OCc3cccc4ccccc34)cc2)SC(=S)N1Cc1cccnc1` [CBK264669], the viability at 28.5 h, 10 µM was 95.6%.

As to `Cc1cccc(NC(=O)CN2C(=O)S/C(=C\c3cc(C)n(-c4cc(C)ccn4)c3C)C2=O)c1` [CBK264671], the viability at 28.5 h, 10 µM came out at 93.4%.

As to `CC(Oc1ccc(Cl)cc1Cl)C(=O)O/N=C(\N)c1ccccn1` (centres unmarked) [CBK264673], the viability at 28.5 h, 10 µM came to 100%.

On to `O=C1/C(=C/c2c(NCCc3ccccc3)nc3ccccn3c2=O)SC(=S)N1Cc1ccco1` [CBK264674], for which the viability at 28.5 h, 10 µM was 96.4%.

Regarding `Cc1ccc(S(=O)(=O)NCCSCc2ccc(Cl)c(Cl)c2)cc1[N+](=O)[O-]` [CBK264675], the viability at 28.5 h, 10 µM was determined as 99.9%.

In the case of `O=C(CCC(=O)c1ccc2c(c1)OCCO2)OCC(=O)c1ccc(F)cc1` [CBK264679], the viability at 28.5 h, 10 µM came out at 103%.

For `Cc1cc(C)c(OCC(=O)Nc2cccc(-c3nc4cc(C(C)C)ccc4o3)c2)c([N+](=O)[O-])c1` [CBK264680], the viability at 28.5 h, 10 µM amounted to 88.6%.

For the molecule `COc1ccc(Br)cc1CN1CCC(N2CCN(c3ccccc3OC)CC2)CC1` [CBK264681G], the viability at 28.5 h, 10 µM was determined as 88.4%.

For `Cc1cccc(OCCn2c(SCCC(=O)O)nc3ccccc32)c1` [CBK264682], the viability at 28.5 h, 10 µM came out at 93.5%.

With `CCOC(=O)CN1C(=O)S/C(=C/c2ccc(OCc3ccc(Br)cc3)cc2)C1=O` [CBK264686], the viability at 28.5 h, 10 µM is 99.1%.

On to `Cc1cc(CSc2ccccc2)ccc1NC(=O)/C=C/c1cccc([N+](=O)[O-])c1` [CBK264687], for which the viability at 28.5 h, 10 µM turned out to be 111%.

Regarding `COc1ccccc1N1CCN(C2CCN(S(=O)(=O)c3ccc(NC(C)=O)cc3)CC2)CC1` [CBK264688], the viability at 28.5 h, 10 µM came out at 93.7%.

For `NCCCC(=O)OC1N=C(c2ccccc2Cl)c2cc(Br)ccc2NC1=O` (centres unmarked) [CBK264689B], where the note is “bulk resorufin, single well”, the viability at 28.5 h, 10 µM worked out at 104%.

As to `CC(O)c1cccc(NC(=O)CCC(=O)O)c1` (centres unmarked) [CBK264691], the viability at 28.5 h, 10 µM stood at 94.1%.

On to `NCC(=O)Nc1ccc(Br)cc1C(=O)c1ccccc1Cl` [CBK264692B], for which the viability at 28.5 h, 10 µM is 90.5%.

Turning to `Cc1cc(C)c2oc(-c3ccc(Cl)c(NC(=O)Cc4ccc(Cl)cc4)c3)nc2c1` [CBK264695], the viability at 28.5 h, 10 µM was 97.8%.

As to `O=C1/C(=C/c2c(NCCCn3ccnc3)nc3ccccn3c2=O)SC(=S)N1C1CCCCC1` [CBK264696], the viability at 28.5 h, 10 µM came out at 95.2%.

For the molecule `O=S(=O)(NC1CCCCC1Oc1ccccc1)c1ccc(Cl)cc1` (centres unmarked) [CBK264697], the viability at 28.5 h, 10 µM came to 114%.

`O=C(CN1C(=O)c2ccccc2C1=O)OCC(=O)N1c2ccccc2Sc2ccccc21` [CBK264701]: the viability at 28.5 h, 10 µM was determined as 91.8%.

As to `O=C1/C(=C/c2ccc(OCc3ccccc3Cl)c(Cl)c2)SC(=S)N1Cc1cccnc1` [CBK264702], the viability at 28.5 h, 10 µM stood at 92.4%.

On to `COc1cc(CN2CCC(N3CCCCCC3)CC2)ccc1OCc1ccccc1` [CBK264709G], for which the viability at 28.5 h, 10 µM worked out at 90.6%.
